Literature values, collected in paper PMC2912446 (ACS chemical biology, 2010).

Test system: GPR30
Conditions: read-out: GPR30 binding affinity; parent small molecules

| IC50 | SMILES |
| --- | --- |
| ~11 nM | CC(=O)c1ccc2c(c1)[C@@H]1C=CC[C@@H]1[C@H](c1cc3c(cc1Br)OCO3)N2 [G-1] |
